# Data as given in ChEMBL document CHEMBL3351358, “LPM7 Inhibitors May Potentially Treat Autoimmune Diseases” (ACS Med Chem Lett, 2014).
# How the values were obtained:
# [1] = Inhibition of LPM7 beta 1c subunit in human Ramos cells using rh110-(Ile)2 substrate by fluorogenic assay; format: cell-based
# [2] = Inhibition of LPM7 beta 5c subunit in human Ramos cells using rh110-(wla)2 substrate by fluorogenic assay; format: cell-based
# [3] = Inhibition of LPM7 in CpG type A-stimulated human PBMCs by CXCL10/IP10 detection based PBMC IP-10 assay
# [4] = Inhibition of LPM7 beta 5i subunit in human Ramos cells using ac-(anw)2-r110 substrate by fluorogenic assay; format: cell-based
# [5] = Inhibition of LPM7 beta 1i subunit in human Ramos cells using rh110-(pal)2 substrate by fluorogenic assay; format: cell-based
compound,measurement,setting,value
C[C@H](NC(=O)C1Cc2ccccc2C1)C(=O)N[C@@H](CCc1ccccc1)C(=O)N[C@@H](Cc1ccccc1)C(=O)C(=O)NCc1ccccc1,IC50,[1],18.1 µM
same,IC50,[2],14 nM
same,EC50,[3],379 nM
same,IC50,[4],4 nM
same,IC50,[5],968 nM
COc1ccc(C[C@H](NC(=O)[C@H](C)NC(=O)C2Cc3ccccc3C2)C(=O)N[C@@H](Cc2ccccc2)C(=O)C(=O)NCc2ccccc2)cc1,IC50,[1],20 µM
same,IC50,[2],55 nM
same,EC50,[3],695 nM
same,IC50,[4],3 nM
same,IC50,[5],234 nM
C[C@H](NC(=O)OCc1ccccc1)C(=O)N[C@@H](CC(F)(F)F)C(=O)N[C@@H](Cc1ccccc1)C(=O)C(=O)NCc1ccccc1,IC50,[1],20 µM
same,IC50,[2],6160 nM
same,EC50,[3],5030 nM
same,IC50,[4],524 nM
same,IC50,[5],2730 nM
CCCC[C@H](NC(=O)[C@H](Cc1c[nH]c2ccccc12)NC(=O)[C@H](C)NC(=O)C1=C(C)c2ccccc2C1)C(=O)C(=O)NCc1ccccc1,IC50,[1],3.35 µM
same,IC50,[2],560 nM
same,EC50,[3],1220 nM
same,IC50,[4],18 nM
same,IC50,[5],142 nM
